Read-outs that look alike come from different tables or passages of the source.
Biological target: T1, cloned human MC4R (Homo sapiens, UniProt P32245)
T1 construct: made in house; host or cells: Hi5 insect cells (baculovirus infection); membrane preparation
Assay: Membrane binding assay: competitive inhibition of [125I]NDP-α-MSH binding
Conditions: for inhibition at 10 µM: read-out: Displacement Rate (%) (at 10 μM)
Procedure: Hi5 cells are infected using the following protocol: Cells at a density of 1×10^6 cells/mL are spun down at 1000 rpm (Beckman GS-6KR centrifuge) for 10 minutes. Cells are resuspended in 10% of their original volume in a sterile 50 mL conical centrifuge tube wrapped with aluminum foil. Virus is added at a Multiplicity of Infection (MOI) of 3 and incubated for 1 hour at room temperature with gentle shaking. […] Cells are spun down in 50 mL conical centrifuge tubes at 1000 rpm for 10 minutes. Each of the resulting pellets are resuspended in 10 mL of cold (4° C.) membrane buffer (25 mM HEPES, pH 7.4, 140 mM NaCl, 1.2 mM MgCl2, 2.5 mM CaCl2, 10 μG/mL Aprotinin, 10 μG/mL Leupeptin) and Dounce homogenized using 10-12 strokes. […] The resulting pellet is resuspended in cold membrane buffer in a total of ¼ of the original volume by vortexing and aspiration using a syringe and 27 gauge needle. Protein content is determined (Bradford, Bio-Rad Protein Assay). Membranes are aliquoted in microcentrifuge tubes and quick frozen in liquid nitrogen. Store at −80° C. until use. The membrane binding buffer is composed of 25 mM HEPES, pH 7.4, 140 mM NaCl, 1.2 mM MgCl2, 2.5 mM CaCl2, 0.1% BSA. […] The mixture is filtered with Brandel Microplate 96 filter apparatus using 96-well GF/B filter presoaked in 1-% polyethyleneimine (Sigma). The filter is washed (4 times with a total of 1 mL per well) with cold wash buffer consisting of 20 mM HEPES, pH 7.4, 5 mM MgCl2. […] 100 μl of Wallac Optiphase Supermix scintillation fluid is added to each well. The top is sealed and the plates are shaken to insure that the filters are thoroughly soaked with fluid. […] Dose-response curves are fitted by […] analyses and IC50 values are calculated using ExcelFit.

[1] = at 10 μM, [125I]NDP-α-MSH displacement

T1 sequence (P32245 whole entry): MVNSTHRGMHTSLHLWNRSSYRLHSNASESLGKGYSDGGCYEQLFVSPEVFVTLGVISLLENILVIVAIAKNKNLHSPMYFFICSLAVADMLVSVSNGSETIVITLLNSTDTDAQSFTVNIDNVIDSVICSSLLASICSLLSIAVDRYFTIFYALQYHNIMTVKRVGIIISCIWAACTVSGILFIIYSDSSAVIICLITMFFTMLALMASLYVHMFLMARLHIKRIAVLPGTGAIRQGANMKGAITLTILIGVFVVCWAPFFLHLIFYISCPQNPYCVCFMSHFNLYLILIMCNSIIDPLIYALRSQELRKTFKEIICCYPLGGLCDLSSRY

SMILES | inhibition at 10 µM [1] [%] | IC50 (read-out: MC4R IC50) [µM] | IC50 [µM] | inhibition at 10 µM [%]
N[C@@H](Cc1ccc(OCc2ccccc2)cc1)C(=O)N1CCCN(CC2CCCCC2)CC1 [Example 53] | 35 to 70 | > 3 | – | –
COc1cccc(CN2CCCN(C(=O)[C@@H](N)Cc3ccc(OCc4ccccc4)cc3)CC2)c1OC [Example 54] | 35 to 70 | > 3 | – | –
N[C@@H](Cc1ccc(OCc2ccccc2)cc1)C(=O)N1CCCN(Cc2cccc(C(F)(F)F)c2)CC1 [Example 55] | 35 to 70 | > 3 | – | –
N[C@@H](Cc1ccc(OCc2ccccc2)cc1)C(=O)N1CCCN(Cc2ccc(Br)cc2)CC1 [Example 56] | – | – | > 3 | 35 to 70
N[C@@H](Cc1ccc(OCc2ccccc2)cc1)C(=O)N1CCCN(Cc2ccccc2Cl)CC1 [Example 57] | 35 to 70 | > 3 | – | –
N[C@@H](Cc1ccc(OCc2ccccc2)cc1)C(=O)N1CCCN(Cc2c(F)cccc2Cl)CC1 [Example 58] | 35 to 70 | > 3 | – | –
COc1cc(CN2CCCN(C(=O)[C@@H](N)Cc3ccc(OCc4ccccc4)cc3)CC2)cc(Br)c1OC [Example 59] | 35 to 70 | > 3 | – | –
N[C@@H](Cc1ccc(OCc2ccccc2)cc1)C(=O)N1CCCN(Cc2ccccc2)CC1 [Example 60] | 35 to 70 | > 3 | – | –
N[C@@H](Cc1ccc(OCc2ccccc2)cc1)C(=O)N1CCCN(Cc2ccc([N+](=O)[O-])cc2)CC1 [Example 61] | 35 to 70 | > 3 | – | –
N[C@@H](Cc1ccc(OCc2ccccc2)cc1)C(=O)N1CCCN(Cc2cnc3ccccc3c2)CC1 [Example 62] | 35 to 70 | > 3 | – | –
COc1cccc(CC(C)N2CCCN(C(=O)[C@@H](N)Cc3ccc(OCc4ccccc4)cc3)CC2)c1 (stereo partly drawn) [Example 63] | 35 to 70 | > 3 | – | –
N[C@@H](Cc1ccc(OCc2ccccc2)cc1)C(=O)N1CCCN(Cc2ccc(Cl)c([N+](=O)[O-])c2)CC1 [Example 64] | – | > 3 | – | 35 to 70
Cc1cccc(CN2CCCN(C(=O)[C@@H](N)Cc3ccc(OCc4ccccc4)cc3)CC2)c1 [Example 65] | 35 to 70 | > 3 | – | –
N[C@@H](Cc1ccc(OCc2ccccc2)cc1)C(=O)N1CCCN(Cc2cc(F)ccc2F)CC1 [Example 66] | 35 to 70 | > 3 | – | –
COc1ccc(CC(C)N2CCCN(C(=O)[C@@H](N)Cc3ccc(OCc4ccccc4)cc3)CC2)cc1 (stereo partly drawn) [Example 67] | 35 to 70 | > 3 | – | –
N[C@@H](Cc1ccc(OCc2ccccc2)cc1)C(=O)N1CCCN(C2CCN(CCc3ccccc3)CC2)CC1 [Example 68] | 35 to 70 | > 3 | – | –
Cc1cccc(CN2CCCN(C(=O)[C@@H](N)Cc3ccc(OCc4ccccc4)cc3)CC2)n1 [Example 69] | 35 to 70 | > 3 | – | –
N[C@@H](Cc1ccc(OCc2ccccc2)cc1)C(=O)N1CCCN(Cc2ccc3c(c2)OCCO3)CC1 [Example 70] | 35 to 70 | > 3 | – | –
N[C@@H](Cc1ccc(OCc2ccccc2)cc1)C(=O)N1CCCN(Cc2cc3c(cc2Cl)OCO3)CC1 [Example 71] | – | > 3 | – | 35 to 70
N[C@@H](Cc1ccc(OCc2ccccc2)cc1)C(=O)N1CCCN(C2CCN(Cc3ccccc3)CC2)CC1 [Example 73] | 35 to 70 | > 3 | – | –
CC1CCC(N2CCCN(C(=O)[C@@H](N)Cc3ccc(OCc4ccccc4)cc3)CC2)CC1 (stereo partly drawn) [Example 74] | 35 to 70 | > 3 | – | –
N[C@@H](Cc1ccc(OCc2ccccc2)cc1)C(=O)N1CCCN(Cc2ccncc2)CC1 [Example 76] | 35 to 70 | > 3 | – | –
N[C@@H](Cc1ccc(OCc2ccccc2)cc1)C(=O)N1CCCN(Cc2cc3c(cc2[N+](=O)[O-])OCO3)CC1 [Example 77] | 35 to 70 | > 3 | – | –
N[C@@H](Cc1ccc(OCc2ccccc2)cc1)C(=O)N1CCCN(Cc2ccc(F)cc2)CC1 [Example 78] | 35 to 70 | > 3 | – | –
CN(C)c1ccc(CN2CCCN(C(=O)[C@@H](N)Cc3ccc(OCc4ccccc4)cc3)CC2)cc1 [Example 79] | 35 to 70 | > 3 | – | –
CC(C)(C)c1ccc(Oc2cccc(CN3CCN(C(=O)[C@@H](N)Cc4ccc(OCc5ccccc5)cc4)CC3)c2)cc1 [Example 80] | 91 to 100 | < 1.5 | – | –

SMILES | inhibition at 10 µM [1] [%] | IC50 (read-out: MC4R IC50) [µM] | IC50 [µM] | inhibition at 10 µM [%]
N[C@@H](Cc1ccc(OCc2ccccc2)cc1)C(=O)N1CCN(Cc2ccc(-c3ccc(Cl)cc3)o2)CC1 [Example 81] | 91 to 100 | < 1.5 | – | –
N[C@@H](Cc1ccc(OCc2ccccc2)cc1)C(=O)N1CCN(Cc2ccccc2Sc2ccc(Cl)cc2)CC1 [Example 82] | 91 to 100 | < 1.5 | – | –
N[C@@H](Cc1ccc(OCc2ccccc2)cc1)C(=O)N1CCN(Cc2ccc3c(c2)Cc2ccccc2-3)CC1 [Example 83] | 91 to 100 | < 1.5 | – | –
N[C@@H](Cc1ccc(OCc2ccccc2)cc1)C(=O)N1CCN(Cc2ccc(Oc3ccccc3)cc2)CC1 [Example 84] | 91 to 100 | < 1.5 | – | –
N[C@@H](Cc1ccc(OCc2ccccc2)cc1)C(=O)N1CCN(Cc2cccc(OCc3ccccc3)c2)CC1 [Example 85] | 91 to 100 | < 1.5 | – | –
N[C@@H](Cc1ccc(OCc2ccccc2)cc1)C(=O)N1CCN(Cc2cccc(Oc3cc(Cl)cc(Cl)c3)c2)CC1 [Example 86] | 91 to 100 | < 1.5 | – | –
N[C@@H](Cc1ccc(OCc2ccccc2)cc1)C(=O)N1CCN(Cc2cn(Cc3ccccc3)c3ccccc23)CC1 [Example 87] | 91 to 100 | < 1.5 | – | –
N[C@@H](Cc1ccc(OCc2ccccc2)cc1)C(=O)N1CCN(Cc2ccc(/C=C/c3ccccc3)cc2)CC1 [Example 88] | 91 to 100 | < 1.5 | – | –
CCn1c2ccccc2c2cc(CN3CCN(C(=O)[C@@H](N)Cc4ccc(OCc5ccccc5)cc4)CC3)ccc21 [Example 89] | 91 to 100 | < 1.5 | – | –
N[C@@H](Cc1ccc(OCc2ccccc2)cc1)C(=O)N1CCN(Cc2cccc(Oc3cccc(C(F)(F)F)c3)c2)CC1 [Example 90] | 91 to 100 | < 1.5 | – | –
N[C@@H](Cc1ccc(OCc2ccccc2)cc1)C(=O)N1CCN(Cc2ccc(N(c3ccccc3)c3ccccc3)cc2)CC1 [Example 91] | 91 to 100 | < 1.5 | – | –
CC(C)(C)c1cc(CN2CCN(C(=O)[C@@H](N)Cc3ccc(OCc4ccccc4)cc3)CC2)cc(C(C)(C)C)c1O [Example 92] | 91 to 100 | < 1.5 | – | –
N[C@@H](Cc1ccc(OCc2ccccc2)cc1)C(=O)N1CCN(Cc2cccc(Cl)c2Cl)CC1 [Example 93] | 91 to 100 | < 1.5 | – | –
N[C@@H](Cc1ccc(OCc2ccccc2)cc1)C(=O)N1CCN(Cc2ccccc2C(F)(F)F)CC1 [Example 94] | 91 to 100 | 1.5 to 3 | – | –
N[C@@H](Cc1ccc(OCc2ccccc2)cc1)C(=O)N1CCN(Cc2ccc(-c3ccccc3)cc2)CC1 [Example 95] | 91 to 100 | < 1.5 | – | –
CCCCc1ccc(CN2CCN(C(=O)[C@@H](N)Cc3ccc(OCc4ccccc4)cc3)CC2)cc1 [Example 96] | 91 to 100 | < 1.5 | – | –
Cc1ccc(S(=O)(=O)n2cc(CN3CCN(C(=O)[C@@H](N)Cc4ccc(OCc5ccccc5)cc4)CC3)c3ccccc32)cc1 [Example 97] | 91 to 100 | < 1.5 | – | –
N[C@@H](Cc1ccc(OCc2ccccc2)cc1)C(=O)N1CCN(Cc2ccc(C(F)(F)F)cc2C(F)(F)F)CC1 [Example 98] | 91 to 100 | 1.5 to 3 | – | –
CCCCCOc1ccc(CN2CCN(C(=O)[C@@H](N)Cc3ccc(OCc4ccccc4)cc3)CC2)cc1 [Example 99] | 91 to 100 | < 1.5 | – | –
N[C@@H](Cc1ccc(OCc2ccccc2)cc1)C(=O)N1CCN(Cc2c3ccccc3cc3ccccc23)CC1 [Example 100] | – | 1.5 to 3 | – | 91 to 100
N[C@@H](Cc1ccc(OCc2ccccc2)cc1)C(=O)N1CCN(Cc2cc(C(F)(F)F)cc(C(F)(F)F)c2)CC1 [Example 101] | 91 to 100 | < 1.5 | – | –
N[C@@H](Cc1ccc(OCc2ccccc2)cc1)C(=O)N1CCN(CC(c2ccccc2)c2ccccc2)CC1 [Example 102] | 91 to 100 | 1.5 to 3 | – | –
N[C@@H](Cc1ccc(OCc2ccccc2)cc1)C(=O)N1CCN(Cc2cccc(Oc3ccccc3)c2)CC1 [Example 103] | 91 to 100 | < 1.5 | – | –
CCOc1ccc(CN2CCN(C(=O)[C@@H](N)Cc3ccc(OCc4ccccc4)cc3)CC2)c(OCC)c1C [Example 104] | 91 to 100 | 1.5 to 3 | – | –
N[C@@H](Cc1ccc(OCc2ccccc2)cc1)C(=O)N1CCN(Cc2ccc3ccccc3c2)CC1 [Example 105] | 71 to 90 | < 1.5 | – | –

Source: US6916812B2, “Alpha-aminoamide derivatives as melanocortin agonists” (Bristol-Myers Squibb Company, priority 2001, dated 2005)
